These are literature values, as cited in patent US20060057174A1, “Natural-non-toxic insect repellant” (priority 2004, published 2006).

The data set has as its system Aedes aegypti. The settings on record: ingredients of Skin-So-Soft bath oil.

`CC(C)OC(=O)CCCCC(=O)OC(C)C` [diisopropyl adipate]: the “repellent to Aedes aegypti” value was “repellent”.
Regarding `O=C(c1ccccc1)c1ccccc1` [benzophenone], the “repellent to Aedes aegypti” value is given as “repellent”.
